In US6608032B1, “Medicinal compositions” (Takara Shuzo Co., Ltd., priority 1999, dated 2003):

Assays:
[1] = tested on: DSEK cells; experiment: Growth of DSEK cells (in vitro rheumatoid model), WST-1; format: cell-based, human
Protocol: DSEK cell is a fibroblast cell line established from a synovial membrane of a human patient with chronic rheumatism and is held at Department of Second Internal Medicine, Integrated Medical Center, Saitama Collage of Medicine as an in vitro rheumatoid model. DSEK cells were cultured in Iscov-MEM medium (IMDM: Gibco-BRL) containing 10% FBS (Bio Whittaker) at 37° C. in the presence of 5% CO2 to saturation of culture vessel. The cells were suspended in the same medium at a concentration of 3×10^4 cells/ml using a trypsin-EDTA solution (Bio Whittaker). 200 μl of the suspension was dispensed into each well of a 96-well microtiter plate (Falcon). […]
10 μl of Premix WST-1 (Takara Shuzo, MK400) was added to one of the wells at intervals of 24 hours up to 72 hours after the medium change. The mixture was reacted at 37° C. for 3.5 hours. The degree of cell growth was expressed by a value obtained by subtracting the absorbance at 650 nm (A650) from the absorbance at 450 nm (A450).

[2] = tested on: human IL-10; experiment: IL-10 production from DSEK cells (ELISA); format: cell-based; details: DSEK culture supernatant
Protocol: (§1) 150 μl of a culture supernatant was collected from a well containing a culture of DSEK cells over time at intervals of 24 hours. The effects of agarobiose on the production (expression) of cytokines (human TGF-β, human FGF-β and human IL-10) from the cell were determined using ELISA kits specific for the respective cytokines (from Intergen for human FGF-β and human IL-10; and from Promega for human TGF-β).

[3] = tested on: human FGF-β; experiment: FGF-β production from DSEK cells (ELISA); format: cell-based; details: DSEK culture supernatant
Protocol: as §1

[4] = tested on: human TGF-β; experiment: TGF-β production from DSEK cells (ELISA); format: cell-based; details: DSEK culture supernatant
Protocol: as §1

[5] = tested on: RAW264.7 cells; experiment: Prostaglandin E2 generation by crude enzyme fraction of RAW264.7 cells pre-treated with sample and LPS; format: cell-based; details: cells treated with 200 μl of 10 mM sample per 20 ml, 5 hours before LPS
Protocol: (1) RAW264.7 cells (ATCC TIB 71) were suspended in Dulbecco's modified Eagle's medium (Bio Whittaker, 12-604F) containing 10% fetal calf serum (Gibco) at a concentration of 1×10^6 cells/ml. 20 ml of the suspension was added to a 10-cm Petri dish and the dish was incubated at 37° C. overnight in the presence of 5% CO2. 200 μl of a solution containing agarohexaose or DGE (obtained in Example 15-(2) below) at a concentration of 10 mM in water was added to the dish. The dish was incubated for 5 hours. 200 μl of a solution containing lipopolysaccharide (LPS, Sigma, L-2012) at a concentration of 100 μg/ml in water was added thereto. The dish was incubated for additional 12 hours. As a control, 200 μL of water was added in place of the sample. The cells were recovered by detaching the cells from the plate using a scraper and suspended in 0.1 M tris buffer (pH 8.0) containing 1 μg/ml pepstatin A (Sigma, P5318), 1 μg/ml leupeptin (Sigma, L2884) and 1 mM phenylmethylsulfonyl fluoride (Nacalai Tesque, 273-27). The cell membrane was destroyed by sonication. A supernatant collected by centrifugation was used as a crude enzyme fraction. The content of protein in the crude enzyme fraction was determined using Micro BCA Protein Assay Reagent (a product of Pierce sold by Takara Shuzo, P7411). 2.5 μL of 200 mM aqueous solution of glutathione (Nacalai Tesque, 170-50), 2.5 μL of a suspension containing L-adrenaline (Nacalai Tesque, 010-04) at a concentration of 200 mM in water, and 1 μL of 3 mM solution of arachidonic acid (Cayman, 90010.1) or 1 μL of 100 μg/mL solution of prostaglandin H2 (Cayman, 17020) were added to 100 μL of the sample from the crude enzyme fraction prepared as described above. The mixture was reacted at 37° C. for 30 minutes. The reaction was stopped by heating at 100° C. for 2 minutes. The content of prostaglandin E2 in the reaction mixture was measured using Prostaglandin E2 ELISA Kit (Neogen, 404110).

Structure (SMILES): OC[C@H]1O[C@@H](O[C@H]2[C@H]3OC[C@@H]2OC(O)[C@H]3O)[C@H](O)[C@@H](O)[C@H]1O (mixture of isomers) [Agarobiose, agarobiose]
- Degree of cell growth (A450-650) ([1]; 50 μM, 24 hr): 1.00 A450-650
- Degree of cell growth (A450-650) ([1]; 50 μM, 48 hr): 1.49 A450-650
- Degree of cell growth (A450-650) ([1]; 50 μM, 72 hr): 1.27 A450-650
- Degree of cell growth (A450-650) ([1]; 100 μM, 24 hr): 0.88 A450-650
- Degree of cell growth (A450-650) ([1]; 100 μM, 48 hr): 1.87 A450-650
- Degree of cell growth (A450-650) ([1]; 100 μM, 72 hr): 1.26 A450-650
- Degree of cell growth (A450-650) ([1]; 200 μM, 24 hr): 0.89 A450-650
- Degree of cell growth (A450-650) ([1]; 200 μM, 48 hr): 1.50 A450-650
- Degree of cell growth (A450-650) ([1]; 200 μM, 72 hr): 0.93 A450-650
- Degree of cell growth (A450-650) ([1]; 400 μM, 24 hr): 0.87 A450-650
- Degree of cell growth (A450-650) ([1]; 400 μM, 48 hr): 0.52 A450-650
- Degree of cell growth (A450-650) ([1]; 400 μM, 72 hr): 0.47 A450-650
- Degree of cell growth (A450-650) ([1]; 800 μM, 24 hr): 0.54 A450-650
- Degree of cell growth (A450-650) ([1]; 800 μM, 48 hr): 0.45 A450-650
- Degree of cell growth (A450-650) ([1]; 800 μM, 72 hr): 0.56 A450-650
- IC50 ([1]; 72 hours, read-out: concentration that resulted in the inhibition of the growth of half cells (IC50)): 169 µM
- production of human IL-10 [2]: activities of inhibiting the production
- production of human FGF-β [3]: activities of inhibiting the production
- production of human TGF-β [4]: activities of inhibiting the production

Structure (SMILES): OCC1OC(OC2C3COC2C(O)C(OC2C(O)C(CO)OC(OC4C5COC4C(O)C(OC4C(O)C(CO)OC(OC6C7COC6C(O)C(O)O7)C4O)O5)C2O)O3)C(O)C(O)C1O (stereo not drawn) [Agarohexaose, agarohexaose]
- production of prostaglandin E2, arachidonic acid added ([5]; FIG. 13): suppressed as compared with the control
- production of prostaglandin E2, prostaglandin H2 added ([5]; FIG. 14): suppressed as compared with the control
